The results in this text go back to patent publication US12606568B2, “SMARCA degraders and uses thereof” (Kymera Therapeutics, Inc., priority 2020, dated 2026).

What all share (type): cell-based
The target of one assay is T1, SMARCA4 (Homo sapiens, UniProt P51532).
T1 construct: SMARCA2 and SMARCA4 protein degradation in MV4-11 cells; endogenous in cells; host or cells: MV4-11
Description: SMARCA4 Western blot MV4-11 degradation. The settings on record: for Dmax: MV4-11, MV4-11 cells, read-out: SMARCA4 MSD MV411 degradation 24 h: average Dmax %; for Dmax / DC50: 24 h; for DC50 / SMARCA4 MSD MV411 degradation 24 h: average Dmax %: MV4-11 cells; for DC50: read-out: SMARCA4 MSD MV411 degradation 24 h: Mean external-Abs DC50. (In general: In western blotting, separated proteins are transferred to a membrane and probed.)

Assay [1] concerns the target T2, SMARCA2 (Homo sapiens, UniProt P51531). Description: MSD SMARCA2 degradation in A549 cell line. To be noted: for Dmax: A549, A549 cells; for Dmax / DC50: 24 h; for DC50 / SMARCA2 MSD A549 degradation 24 h: Average Dmax %: A549 cells; for DC50: read-out: SMARCA2 MSD A549 degradation 24 h: Average external-Abs DC50. The arrangement: endogenous in cells. The gist of the method:
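A549 cells treated 24 h with compound, 3-fold series 1000 nM down to 0.152 nM plus DMSO. RIPA lysates captured on MSD plates, probed with rabbit anti-SMARCA2/BRM (1 µg/ml) then SULFO-TAG anti-rabbit, electrochemiluminescence read. DC50 and 24 h Dmax reported as letter bins.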

For assay [2], the target named is T2, SMARCA2. The experiment in a line: SMARCA2 Western blot MV4-11 degradation. The arrangement: SMARCA2 and SMARCA4 protein degradation in MV4-11 cells; endogenous in cells; host or cells: MV4-11. To be noted: for Dmax: MV4-11, MV4-11 cells, read-out: SMARCA2 MSD MV411 degradation 24 h: average Dmax %; for Dmax / DC50: 24 h; for DC50 / SMARCA2 MSD MV411 degradation 24 h: average Dmax %: MV4-11 cells; for DC50: read-out: SMARCA2 MSD MV411 degradation 24 h: Mean external-Abs DC50.

T1 sequence (P51532 whole entry): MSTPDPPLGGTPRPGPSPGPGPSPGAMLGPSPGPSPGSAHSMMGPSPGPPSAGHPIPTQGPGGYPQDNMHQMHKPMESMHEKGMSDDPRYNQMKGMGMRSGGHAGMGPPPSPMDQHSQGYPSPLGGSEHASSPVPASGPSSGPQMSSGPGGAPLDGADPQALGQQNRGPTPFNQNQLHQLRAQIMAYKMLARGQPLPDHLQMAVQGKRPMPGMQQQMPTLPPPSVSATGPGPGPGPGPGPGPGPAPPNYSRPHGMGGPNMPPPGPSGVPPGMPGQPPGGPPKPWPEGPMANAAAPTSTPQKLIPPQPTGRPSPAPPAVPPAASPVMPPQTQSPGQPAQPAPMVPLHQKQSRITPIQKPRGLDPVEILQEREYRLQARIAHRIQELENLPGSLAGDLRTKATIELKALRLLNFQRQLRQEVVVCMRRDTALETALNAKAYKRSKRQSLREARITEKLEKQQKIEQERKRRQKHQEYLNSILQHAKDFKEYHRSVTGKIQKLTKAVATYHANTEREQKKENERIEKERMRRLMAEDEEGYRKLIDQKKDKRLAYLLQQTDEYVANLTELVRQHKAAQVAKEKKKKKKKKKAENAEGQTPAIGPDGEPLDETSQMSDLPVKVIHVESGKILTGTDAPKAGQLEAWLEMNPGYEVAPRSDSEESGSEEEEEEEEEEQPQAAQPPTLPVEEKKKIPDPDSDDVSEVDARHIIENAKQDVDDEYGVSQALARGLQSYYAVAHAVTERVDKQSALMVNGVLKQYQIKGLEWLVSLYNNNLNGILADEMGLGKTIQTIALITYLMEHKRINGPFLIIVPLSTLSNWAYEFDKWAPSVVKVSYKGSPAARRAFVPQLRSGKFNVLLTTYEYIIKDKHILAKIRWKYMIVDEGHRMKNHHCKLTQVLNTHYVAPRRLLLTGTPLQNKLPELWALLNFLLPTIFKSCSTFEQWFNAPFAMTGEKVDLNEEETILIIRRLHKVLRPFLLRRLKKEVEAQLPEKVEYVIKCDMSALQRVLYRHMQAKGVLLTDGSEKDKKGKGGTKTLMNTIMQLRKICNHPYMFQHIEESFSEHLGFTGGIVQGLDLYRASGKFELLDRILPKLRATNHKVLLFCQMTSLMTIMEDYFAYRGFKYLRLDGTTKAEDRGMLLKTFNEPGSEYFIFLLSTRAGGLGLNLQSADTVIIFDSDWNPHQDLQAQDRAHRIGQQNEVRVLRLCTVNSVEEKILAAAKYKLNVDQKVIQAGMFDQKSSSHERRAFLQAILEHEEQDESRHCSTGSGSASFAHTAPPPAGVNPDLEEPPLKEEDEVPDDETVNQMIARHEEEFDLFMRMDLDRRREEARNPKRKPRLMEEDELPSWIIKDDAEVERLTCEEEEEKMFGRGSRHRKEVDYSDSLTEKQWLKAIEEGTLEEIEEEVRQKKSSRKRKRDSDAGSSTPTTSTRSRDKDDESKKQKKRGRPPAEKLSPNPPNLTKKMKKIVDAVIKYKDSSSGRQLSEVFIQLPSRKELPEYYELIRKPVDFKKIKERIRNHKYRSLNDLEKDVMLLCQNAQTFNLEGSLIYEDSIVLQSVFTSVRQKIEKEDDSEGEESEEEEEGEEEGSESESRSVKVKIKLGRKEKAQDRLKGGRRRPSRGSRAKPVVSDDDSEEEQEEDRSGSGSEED
T2 sequence (P51531 whole entry): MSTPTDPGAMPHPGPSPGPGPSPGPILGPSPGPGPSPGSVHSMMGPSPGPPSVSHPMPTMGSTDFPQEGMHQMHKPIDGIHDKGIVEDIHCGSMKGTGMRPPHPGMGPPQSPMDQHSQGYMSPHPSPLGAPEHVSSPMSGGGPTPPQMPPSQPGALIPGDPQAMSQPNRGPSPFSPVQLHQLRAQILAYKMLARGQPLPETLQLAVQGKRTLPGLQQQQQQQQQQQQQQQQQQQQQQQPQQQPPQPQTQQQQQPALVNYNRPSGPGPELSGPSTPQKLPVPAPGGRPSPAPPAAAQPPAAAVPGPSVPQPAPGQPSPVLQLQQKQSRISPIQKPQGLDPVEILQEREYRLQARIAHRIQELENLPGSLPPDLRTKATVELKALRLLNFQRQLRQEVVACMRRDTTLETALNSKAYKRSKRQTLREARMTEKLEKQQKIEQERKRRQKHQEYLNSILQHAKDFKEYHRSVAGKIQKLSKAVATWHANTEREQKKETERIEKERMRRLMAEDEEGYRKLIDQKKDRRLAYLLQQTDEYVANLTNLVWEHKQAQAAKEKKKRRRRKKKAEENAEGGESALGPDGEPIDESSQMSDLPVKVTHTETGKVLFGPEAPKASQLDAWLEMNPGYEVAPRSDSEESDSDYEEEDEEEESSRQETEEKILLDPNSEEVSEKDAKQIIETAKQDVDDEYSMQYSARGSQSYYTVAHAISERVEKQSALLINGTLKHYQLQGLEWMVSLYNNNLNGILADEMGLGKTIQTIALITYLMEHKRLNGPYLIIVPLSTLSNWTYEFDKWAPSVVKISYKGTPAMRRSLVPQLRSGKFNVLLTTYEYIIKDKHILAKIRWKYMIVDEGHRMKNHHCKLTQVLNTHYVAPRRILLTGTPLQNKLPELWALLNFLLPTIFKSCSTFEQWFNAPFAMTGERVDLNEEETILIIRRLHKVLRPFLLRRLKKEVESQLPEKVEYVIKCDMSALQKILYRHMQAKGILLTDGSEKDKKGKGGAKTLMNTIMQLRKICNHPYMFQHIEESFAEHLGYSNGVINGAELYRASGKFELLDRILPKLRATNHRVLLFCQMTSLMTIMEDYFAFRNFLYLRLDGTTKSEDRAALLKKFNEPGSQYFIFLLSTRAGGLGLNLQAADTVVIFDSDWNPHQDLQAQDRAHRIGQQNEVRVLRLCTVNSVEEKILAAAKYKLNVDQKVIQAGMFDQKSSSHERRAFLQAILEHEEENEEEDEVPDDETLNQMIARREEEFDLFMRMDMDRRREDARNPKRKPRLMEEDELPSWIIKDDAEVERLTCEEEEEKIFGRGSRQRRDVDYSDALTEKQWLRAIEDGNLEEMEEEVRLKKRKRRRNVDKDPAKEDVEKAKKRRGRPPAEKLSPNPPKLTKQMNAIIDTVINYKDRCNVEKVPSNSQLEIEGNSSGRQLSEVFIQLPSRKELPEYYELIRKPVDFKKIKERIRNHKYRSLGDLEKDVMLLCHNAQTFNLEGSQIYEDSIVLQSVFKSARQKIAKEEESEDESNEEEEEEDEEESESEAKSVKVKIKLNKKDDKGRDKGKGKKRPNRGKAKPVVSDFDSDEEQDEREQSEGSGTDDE

Usually Dmax stands for the greatest extent of degradation seen. In general, DC50 refers to the concentration at which degradation of the target reaches its halfway point. `Cc1ncsc1-c1ccc(CNC(=O)[C@@H]2C[C@@H](O)CN2C(=O)[C@@H](NC(=O)[C@H]2CC3(C2)C[C@H](N2CC4(CN(c5cnc(N6C7CCC6CN(c6cc(-c8ccccc8O)nnc6N)C7)nc5)C4)C2)C3)C(C)(C)C)cc1` (stereo partly drawn) [I-11, (2S,4R)-1-((2S)-2-(6-(6-(2-(3-(3-amino-6-(2-hydroxyphenyl)pyridazin-4-yl)-3,8-diazabicyclo[3.2.1]octan-8-yl)pyrimidin-5-yl)-2,6-diazaspiro[3.3]heptan-2-yl)spiro[3.3]heptane-2-carboxamido)-3,3-dimethylbutanoyl)-4-hydroxy-N-(4-(4-methylthiazol-5-yl)benzyl)pyrrolidine-2-carboxamide]: the Dmax at SMARCA4 is below 50%; on SMARCA2 [1], 70 to 90%; on SMARCA2 [2], 70 to 90%. Moreover, the DC50 is above 1000 nM at SMARCA4, 100 to 500 nM on SMARCA2 [1] and below 100 nM on SMARCA2 [2].
For the compound `Cc1ncsc1-c1ccc(CNC(=O)[C@@H]2C[C@@H](O)CN2C(=O)[C@@H](NC(=O)[C@H]2CC3(C2)C[C@H](N2CC4(CN(c5cnc(N6C7CCC6CN(c6cc(-c8ccccc8O)nnc6N)C7)nc5)C4)C2)C3)C(C)(C)C)cc1` (stereo partly drawn) [I-12, (2S,4R)-1-((2S)-2-(6-(6-(2-(3-(3-amino-6-(2-hydroxyphenyl)pyridazin-4-yl)-3,8-diazabicyclo[3.2.1]octan-8-yl)pyrimidin-5-yl)-2,6-diazaspiro[3.3]heptan-2-yl)spiro[3.3]heptane-2-carboxamido)-3,3-dimethylbutanoyl)-4-hydroxy-N-(4-(4-methylthiazol-5-yl)benzyl)pyrrolidine-2-carboxamide], the DC50 at SMARCA4 is above 1000 nM; at SMARCA2 [1], 100 to 500 nM; at SMARCA2 [2], below 100 nM.
On to `Cc1ncsc1-c1ccc(CNC(=O)[C@@H]2C[C@@H](O)CN2C(=O)[C@@H](NC(=O)[C@H]2CC3(CC[C@H](N4CCC(c5cnc(N6C7CCC6CN(c6cc(-c8ccccc8O)nnc6N)C7)nc5)CC4)CC3)C2)C(C)(C)C)cc1` (stereo partly drawn) [I-13], for which the Dmax on SMARCA4 was 70 to 90%; on SMARCA2 [1] it was above 90%; on SMARCA2 [2] it was 70 to 90%. Besides, the figures for the DC50 at SMARCA4, at SMARCA2 [1] and on SMARCA2 [2] were above 1000 nM, below 100 nM and below 100 nM, respectively.
Consider `Cc1ncsc1-c1ccc(CNC(=O)[C@@H]2C[C@@H](O)CN2C(=O)[C@@H](NC(=O)[C@H]2CC3(CC[C@H](N4CCC(c5cnc(N6C7CCC6CN(c6cc(-c8ccccc8O)nnc6N)C7)nc5)CC4)CC3)C2)C(C)(C)C)cc1` (stereo partly drawn) [I-14, (2S,4R)-1-((2S)-2-(7-(4-(2-(3-(3-amino-6-(2-hydroxyphenyl)pyridazin-4-yl)-3,8-diazabicyclo[3.2.1]octan-8-yl)pyrimidin-5-yl)piperidin-1-yl)spiro[3.5]nonane-2-carboxamido)-3,3-dimethylbutanoyl)-4-hydroxy-N-(4-(4-methylthiazol-5-yl)benzyl)pyrrolidine-2-carboxamide], for which, on SMARCA4, the “SMARCA4 MSD MV411 degradation 24 h: average Dmax %” value was “B (B (>70-90% degradation))” and the DC50 was above 1000 nM. At SMARCA2 [1], the “SMARCA2 MSD A549 degradation 24 h: Average Dmax %” value was “B (B (>70-90% o degradation))” and the DC50 is below 100 nM. Further, on SMARCA2 [2], the “SMARCA2 MSD MV411 degradation 24 h: average Dmax %” value is “B (B (>70-90% degradation))” and the DC50 was below 100 nM.
As to `Cc1ncsc1-c1ccc([C@H](C)NC(=O)[C@@H]2C[C@@H](O)CN2C(=O)[C@@H](NC(=O)[C@H]2CCC3(CC2)C[C@H](N2CCC(c4cnc(N5C6CCC5CN(c5cc(-c7ccccc7O)nnc5N)C6)nc4)CC2)C3)C(C)(C)C)cc1` (stereo partly drawn) [I-16, (2S,4R)-1-((2S)-2-(2-(4-(2-(3-(3-amino-6-(2-hydroxyphenyl)pyridazin-4-yl)-3,8-diazabicyclo[3.2.1]octan-8-yl)pyrimidin-5-yl)piperidin-1-yl)spiro[3.5]nonane-7-carboxamido)-3,3-dimethylbutanoyl)-4-hydroxy-N—((S)-1-(4-(4-methylthiazol-5-yl)phenyl)ethyl)pyrrolidine-2-carboxamide], on SMARCA4, the “SMARCA4 MSD MV411 degradation 24 h: average Dmax %” value was “B (B (>70-90% degradation))” and the DC50 was below 100 nM. Moreover, at SMARCA2 [1], the “SMARCA2 MSD A549 degradation 24 h: Average Dmax %” value is “A (A (>90% o degradation))” and the DC50 is 100 to 500 nM. For the same compound, at SMARCA2 [2], the “SMARCA2 MSD MV411 degradation 24 h: average Dmax %” value is listed as “A (A (>90% degradation))” and the 50% degradation concentration (DC50) is below 100 nM.
In the case of `Cc1ncsc1-c1ccc(CNC(=O)[C@@H]2C[C@@H](O)CN2C(=O)C(c2cc(OCCCOCCCN3CCC(Cn4cc(-c5cc(-c6ccccc6O)nnc5N)cn4)CC3)no2)C(C)C)cc1` (stereo partly drawn) [I-21, (2S,4R)-1-(2-(3-(3-(3-(4-((4-(3-amino-6-(2-hydroxyphenyl)pyridazin-4-yl)-1H-pyrazol-1-yl)methyl)piperidin-1-yl)propoxy)propoxy)isoxazol-5-yl)-3-methylbutanoyl)-4-hydroxy-N-(4-(4-methylthiazol-5-yl)benzyl)pyrrolidine-2-carboxamide], the values for the greatest degradation seen (Dmax) on SMARCA4, on SMARCA2 [1] and at SMARCA2 [2] were 70 to 90%, above 90% and above 90%, respectively. Moreover, the values for the 50% degradation concentration (DC50) at SMARCA4, at SMARCA2 [1] and on SMARCA2 [2] were 501 to 1000 nM, above 1000 nM and below 100 nM, respectively.
As to `Cc1ncsc1-c1ccc(CNC(=O)[C@@H]2C[C@@H](O)CN2C(=O)C(c2cc(OCCN3CCC(O[C@H]4C[C@H](Oc5cc(N6C7CCC6CN(c6cc(-c8ccccc8O)nnc6N)C7)ccn5)C4)CC3)no2)C(C)C)cc1` (stereo partly drawn) [I-22, (2S,4R)-1-(2-(3-(2-(4-((1r,3r)-3-((4-(3-(3-amino-6-(2-hydroxyphenyl)pyridazin-4-yl)-3,8-diazabicyclo[3.2.1]octan-8-yl)pyridin-2-yl)oxy)cyclobutoxy)piperidin-1-yl)ethoxy)isoxazol-5-yl)-3-methylbutanoyl)-4-hydroxy-N-(4-(4-methylthiazol-5-yl)benzyl)pyrrolidine-2-carboxamide], the Dmax at SMARCA4 was above 90%; at SMARCA2 [1], above 90%; at SMARCA2 [2], 70 to 90%. For the same compound, the DC50 at SMARCA4 is above 1000 nM; at SMARCA2 [1], 501 to 1000 nM; at SMARCA2 [2], below 100 nM.
For `Cc1ncsc1-c1ccc(CNC(=O)[C@@H]2C[C@@H](O)CN2C(=O)[C@@H](NC(=O)[C@H]2CC3(C2)C[C@H](N2CCC(c4ccc(N5C6CCC5CN(c5cc(-c7ccccc7O)nnc5N)C6)cc4)CC2)C3)C(C)(C)C)nc1` (stereo partly drawn) [I-23, (2S,4R)-1-((2S)-2-(6-(4-(4-(3-(3-amino-6-(2-hydroxyphenyl)pyridazin-4-yl)-3,8-diazabicyclo[3.2.1]octan-8-yl)phenyl)piperidin-1-yl)spiro[3.3]heptane-2-carboxamido)-3,3-dimethylbutanoyl)-4-hydroxy-N-((5-(4-methylthiazol-5-yl)pyridin-2-yl)methyl)pyrrolidine-2-carboxamide], the greatest degradation seen (Dmax) at SMARCA4, on SMARCA2 [1] and at SMARCA2 [2] was below 50% throughout. Also, the values for the DC50 at SMARCA4, at SMARCA2 [1] and on SMARCA2 [2] were above 1000 nM, above 1000 nM and 100 to 500 nM, respectively.
Regarding `Cc1ncsc1-c1ccc(CNC(=O)[C@@H]2C[C@@H](O)CN2C(=O)[C@@H](NC(=O)[C@H]2CC3(C2)C[C@H](N2CCC(c4ccc(N5C6CCC5CN(c5cc(-c7ccccc7O)nnc5N)C6)cc4)CC2)C3)C(C)(C)C)nc1` (stereo partly drawn) [I-24, (2S,4R)-1-((2S)-2-(6-(4-(4-(3-(3-amino-6-(2-hydroxyphenyl)pyridazin-4-yl)-3,8-diazabicyclo[3.2.1]octan-8-yl)phenyl)piperidin-1-yl)spiro[3.3]heptane-2-carboxamido)-3,3-dimethylbutanoyl)-4-hydroxy-N-((5-(4-methylthiazol-5-yl)pyridin-2-yl)methyl)pyrrolidine-2-carboxamide], the DC50 was above 1000 nM at SMARCA4, above 1000 nM at SMARCA2 [1] and 100 to 500 nM at SMARCA2 [2].
